Test results published in patent publication US4864038A, “Antihypercholesterolemic compounds” (Merck & Co., Inc., priority 1988, dated 1989).

System: HMG-CoA reductase
Assay: HMG-CoA Reductase Inhibition Assay (in vitro, intrinsic inhibitory activity)
Assay type: biochemical
Settings: IC50 of test compound compared with compactin determined simultaneously, compactin assigned a value of 100; tested as sodium salt of dihydroxy acid form; rat liver microsomal enzyme
Procedure: The intrinsic HMG-CoA reductase inhibition activity of the claimed compounds is measured in the in vitro protocol published in J. Med. Chem., 28, p. 347-358 (1985) and described below:
Male Holtzman Sprague-Dawley rats (225-250 g) were kept on reversed lighting and fed Purina rat chow containing 3% cholestryamine for 7 days preceding their sacrifice by CO2 asphyxiation. Livers were removed 6 hours into the dark cycle and used immediately to prepare microsomes. […]
Test compounds or compactin (after first being converted to the sodium salt of their dihydroxy acid form in situ by addition of 1N NaOH (1 equivalent) were added to the assay system in 10-μL volumes at multiconcentration levels. After a 40-minute incubation at 37° C. with shaking and exposure to air, the reaction was stopped by the addition of 0.4 mL of 8N HCl. After an additional 30-minute incubation period at 37° C. to ensure the complete lactonization of mevalonic acid to mevalonolactone, 0.2 ml of the mixture was added to an 0.5×5.0 cm column containing 100-200 mesh Bio-Rex 5, chloride form (Bio-Rad), wetted with distilled water, as described by Alberts et al [J. Proc. Natl. Acad. Sci. U.S.A., 1980, 77, 3957]. […] Five milliliters of Aquasol-2 (New England Nuclear) was added to each vial, and radioactivity was measured in a Packard Tri Carb Prias scintillation counter. […]

SMILES	Relative Potency
C[C@H]1C=C2C=C[C@H](C)[C@H](CC[C@@H]3C[C@@H](O)CC(=O)O3)[C@H]2[C@@H](OC(=O)C(C)(C)Sc2ccccc2)C1 [Example 1, 6(R)-[2-[8(S)-[2-Methyl-2-(phenylthio)propionyloxy]-2(S),6(R)-dimethyl-1,2,6,7,8,8a(R)-hexahydronaphthyl-1(S)]ethyl]-4(R)-hydroxy-3,4,5,6-tetrahydro-2H-pyran-2-one]	156
C[C@H]1C=C2C=C[C@H](C)[C@H](CC[C@@H]3C[C@@H](O)CC(=O)O3)[C@H]2[C@@H](OC(=O)C(C)(C)[S+]([O-])c2ccccc2)C1 (stereo partly drawn) [Example 2, 6(R)-[2-[8(S)-[2-Methyl-2-(phenylsulfinyl)propionyloxy]-2(S),6(R)-dimethyl-1,2,6,7,8,8a(R)-hexahydronaphthyl-1(S)]ethyl]-4(R)-hydroxy-3,4,5,,6-tetrahydro-2H-pyran-2-one]	38
